Data reported in US20030129180A1, “Products and methods for treating microbial infections” (The Proctor & Gamble Company, priority 2001, published 2003).

Key:
T. mentagrophytes = experiment: Relative growth of pre-germinated arthrospores in ESD broth tubes; assay type: cell-based; set-up: key: −: - (no growth); relative scale from - (no growth) to +++ (maximal growth); relative scale from - (no growth) to +++ (maximal growth); +++ (maximal growth); details: clotrimazole control, 20 μ/ml per tube, 26° C.
Method: (§1) Purified arthrospore suspensions of T. mentagrophytes or T. rubrum (prepared as per L. R. Wright et al., 1983, J. Antimicrob. Chemotherapy 12:317-327), diluted to a concentration of 1×10^6 cfu/ml in Emmon's modification of Sabouraud Dextrose Broth (ESD—R. Atlas, 1997, Handbook of microbiological media, CRC Press Inc., Boca Raton, Fla.), are incubated for 6 hours at 26° C. or 30° C., respectively, to pre-germinate spores. Enzyme preparations of chitinase (Sigma Cat. No. C-1525) and β1-1,3-glucanase (Sigma Cat. No. L-2524) are diluted into 3 ml volumes of ESD in capped glass tubes, to final concentrations of each enzyme ranging from 0 to 100 ppm. Clotrimazole controls are also prepared, to a final concentration of 20 μ/ml per tube.
(§2) Each tube is then inoculated with 10 μl (1×10^4 cfu) of either the T. mentagrophytes or T. rubrum pre-germinated arthrospore suspension, followed by incubation on a shaker at 200 rpm, at 26° C. or 30° C., respectively, for a total of 41 hours.

T. rubrum = experiment: as above; assay type: cell-based; set-up: key: −: - (no growth); relative scale from - (no growth) to +++ (maximal growth); relative scale from - (no growth) to +++ (maximal growth); +++ (maximal growth); details: clotrimazole control, 20 μ/ml per tube, 30° C.
Method: as §1, §2

Clc1ccccc1C(c1ccccc1)(c1ccccc1)n1ccnc1 [clotrimazole]
−: Growth, T. mentagrophytes, 18 hours (T. mentagrophytes; 18 hours) | Growth, T. mentagrophytes, 41 hours (T. mentagrophytes; 41 hours) | Growth, T. rubrum, 18 hours (T. rubrum; 18 hours) | Growth, T. rubrum, 41 hours (T. rubrum; 41 hours)
